In patent publication US20080280974A1, “Spiro compounds for treatment of inflammatory disorders” (priority 2007, published 2008) one finds melting point, inhibition in vivo and inhibition data, which are given here for 23 molecules.

For orientation: melting point means the temperature, or range, at which the solid turns liquid. As a reminder, the inhibition is the share of the control response that was lost under treatment. Lower therefore signals little suppression.

A value given as a limit tells only on which side of the number the result lay.

Data set [1] concerns Balb/CJ mice, ovalbumin-sensitized and challenged. Kind of data set: Mouse model of asthma: methacholine-induced airway reactivity (Penh) in ovalbumin-sensitized mice. Type of data set: in vivo. To be noted: po, 768 h, 50 mg/kg p.o., days 26-32, % inhibition of the PenH vs McH dose AUC compared with vehicle control, day 32, read-out: Reduction of Penh AUC at 50 mg/kg p.o. As to the method: Protocol for Testing Compounds in a Mouse Model of Asthma
Male 5-6 week old Balb/CJ mice were obtained from Jackson Laboratories (Bar Harbor, Me.). All experimental animals were used in accordance to Institutional Animal Care and Use Committee of AtheroGenics, Inc. Mice were sensitized by administering an intraperitoneal injection of 20 μg of ovalbumin (Calbiochem, La Jolla, Calif.) adsorbed in 2 mg of alum (Imject Alum; Pierce, Rockford, Ill.) on day 0 and 14. A group of mice received saline and served as negative control animals. The mice were challenged by aerosol exposure to ovalbumin (1% [wt/vol]) for 25 minutes on 3 consecutive days (days 28, 29, and 30) in a plexiglas exposure chamber coupled to an Aeroneb nebulizer (Buxco Electronics, Wilmington, N.C.). Experimental compounds were dissolved in Glycofurol/PEG 300/Tween (35%/55%/10%) (Sigma-aldrich; Milwaukee, Wis.). Animals were dosed orally with either test compound or vehicle (6 ml/kg dosing volume) on days 26-32 of study. Compound or vehicle was administered 2 hour before the aerosol challenge on days 28, 29, and 30 and 1 hour before airway reactivity measurement on day 32.
Methacholine-induced airway reactivity was assessed on day 32. Methacholine was administered in increasing concentrations ([…], 1.5, 3, 6, 12, 25, and 50 mg/ml) to unrestrained mice. Increases in airway resistance to Methacholine were determined as enhanced pause, (Penh) values, during and after the exposure (6-minute total analysis time). Mice were then humanely euthanized with an overdose of ketamine/xylazine and plasma samples collected for determination of drug levels. The data is presented as the % inhibition of the PenH vs McH dose AUC compared with the vehicle control.
Data analysis was conducting using the software package, JMP (SAS Institute Inc; Cary, N.C.). The Dunnett's multiple comparison test was used to compare treatment group means to the vehicle control group. P values of less than 0.05 were considered statistically significant. The data (Table 1) are presented as the % inhibition of the PenH vs McH dose AUC compared with the vehicle control.

Data set [2] deals with IL-8 secreted by human pulmonary artery endothelial cells (HPAEC). Kind of data set: In vitro IL-8 assay: TNF-alpha-stimulated IL-8 secretion by HPAEC, ELISA. Type of data set: cell-based. To be noted: Endothelial cell, 10 microM compound, 20 hrs preincubation, then 2 ng/ml TNF-alpha for 4 hrs. As to the method:
(§1) In Vitro IL-6 and IL-8 Assays
(§2) Compounds at dosing concentrations (with 0.2% DMSO vehicle) were incubated in EGM2MV cell media at 37° C. for overnight, added to 96-well plates seeded with confluent human pulmonary artery endothelial cells (HPAEC) for 20 hrs at 37° C., and then replaced with fresh dosing media containing 2 ng/ml tumor necrosis factor alpha for additional 4 hrs at 37° C. Afterwards, media was removed and used in ELISA assay to quantify the amount of IL-6 and IL-8 secreted by the cells using R&D Systems Duoset ELISA kits.
For orientation: In an ELISA, binding on a coated surface is turned into a signal by an enzyme label.

Data set [3] relates to IL-6 secreted by human pulmonary artery endothelial cells (HPAEC). In words: In vitro IL-6 assay: TNF-alpha-stimulated IL-6 secretion by HPAEC, ELISA. In kind it is cell-based. To be noted: Endothelial cell, 10 microM compound, 20 hrs preincubation, then 2 ng/ml TNF-alpha for 4 hrs. The method, then:
as §1, §2

In the case of `C=CCc1c(O)c(C)cc2c1C(C)(C)CC1(CC(C)(C)c3cc(O)c(C)cc3O1)O2` (racemic) [Example 22, (±)-6,6′-Dihydroxy-5-allyl-4,4,4′,4′,7,7′-hexamethyl-2,2′-spirobichroman], the melting point was in the range of 102 to 104 °C. The inhibition in vivo at 50 mg/kg in data set [1] is below 20%. As for `Cc1cc2c(cc1O)C(C)(C)C[C@]1(CC(C)(C)c3cc(OC(C)(C)C(=O)O)c(C)cc3O1)O2` (racemic) [Example 9, (±)-(R)-(6′-Hydroxy-4,4,4′,4′,7,7′-hexamethyl-2,2′-spirobichroman-6-yloxy)-dimethylacetic acid], the inhibition in vivo at 50 mg/kg in data set [1] was above 40%. As to `Cc1cc(C)n(CCOc2cc3c(cc2C)OC2(CC(C)(C)c4cc(O)c(C)cc4O2)CC3(C)C)n1` (racemic) [Example 2, (±)-6′-Hydroxy-6-[2-(3,5-dimethyl-1H-pyrazol-1-yl)ethoxy]-4,4,4′,4′,7,7′-hexamethyl-2,2′-spirobichroman], the inhibition at 10 µM in data set [2] was found to be 12%; in data set [3], 9%. In data set [1], the inhibition in vivo at 50 mg/kg was below 20%. Regarding `Cc1cc2c(cc1O)C(C)(C)CC1(CC(C)(C)c3cc(OCC(=O)OCc4ccccc4)c(C)cc3O1)O2` (racemic) [Example 25, (±)-(6′-Hydroxy-4,4,4′,4′,7,7′-hexamethyl-2,2′-spirobichroman-6-yloxy)-acetic acid Benzyl Ester], the melting point is 60 to 65 °C. For `Cc1cc2c(cc1O)C(C)(C)CC1(CC(C)(C)c3cc(OCCCn4ccnc4)c(C)cc3O1)O2` (racemic) [Example 6, (±)-6′-Hydroxy-6-[3-(1H-imidazol-1-yl)propoxy]-4,4,4′,4′,7,7′-hexamethyl-2,2′-spirobichroman], the melting point is 209 to 211 °C. In data set [2], this molecule registered an inhibition at 10 µM of 5%. This molecule registered an inhibition at 10 µM in data set [3] of 24%.

`Cc1cc2c(cc1O)C(C)(C)CC1(CC(C)(C)c3cc(OCC(=O)O[C@@H]4C[C@H](C)CC[C@H]4C(C)(C)c4ccccc4)c(C)cc3O1)O2` (mixture of isomers) [Example 26, (±)-(6′-Hydroxy-4,4,4′,4′,7,7′-hexamethyl-2,2′-spirobichroman-6-yloxy)-acetic acid 5(R)-Methyl-2(S)-(1-methyl-1-phenylethyl)-1(R)-cyclohexyl Ester] showed a melting point of 88 to 93 °C.

In turn, `Cc1cc2c(cc1O)C(C)(C)CC1(CC(C)(C)c3cc(OC[C@@H](O)CO)c(C)cc3O1)O2` (mixture of isomers) [Example 5, (±)-6′-Hydroxy-6-[2(S),3-dihydroxypropoxy]-4,4,4′,4′,7,7′-hexamethyl-2,2′-spirobichroman] had a melting point of 218 to 220 °C. Further, testing at 10 µM in data set [2] gave an inhibition of 11%. Besides, at 10 µM the inhibition in data set [3] was 3%. For the same molecule, the inhibition in vivo at 50 mg/kg in data set [1] lay in the range of 20 to 40%. Regarding `Cc1cc2c(cc1O)C(C)(C)CC1(CC(C)(C)c3cc(OCC(C)(C)O)c(C)cc3O1)O2` (racemic) [Example 19, (±)-6′-Hydroxy-6-(2-hydroxy-2-methylpropoxy)-4,4,4′,4′,7,7′-hexamethyl-2,2′-spirobichroman], in data set [1], the inhibition in vivo at 50 mg/kg is below 20%. On to `Cc1cc2c(cc1O)C(C)(C)CC1(CC(C)(C)c3cc(O)c(C)cc3O1)O2` (racemic) [Example 24, (±)-6,6′-Dihydroxy-4,4,4′,4′,7,7′-hexamethyl-2,2′-spirobichroman], for which the inhibition at 10 µM in data set [2] was found to be 51%; in data set [3] it was 65%. In addition, the inhibition in vivo at 50 mg/kg in data set [1] is 20 to 40%. Molecule `C=CCOc1cc2c(cc1C)OC1(CC(C)(C)c3cc(O)c(C)cc3O1)CC2(C)C` (racemic) came in with a melting point of 143 to 144 °C. Still for that read-out and setting: to `C=CCOc1cc2c(cc1C)OC1(CC2(C)C)CC(C)(C)c2cc(OCC=C)c(C)cc2O1` [Example 16, (±)-6,6′-Bisallyloxy-4,4,4′,4′,7,7′-hexamethyl-2,2′-spirobichroman] belongs 98 to 100 °C.

For `C=CCc1c(O)c(C)cc2c1C(C)(C)CC1(CC(C)(C)c3c(cc(C)c(O)c3CC=C)O1)O2` (racemic) [Example 23, (±)-6,6′-Dihydroxy-5,5′-diallyl-4,4,4′,4′,7,7′-hexamethyl-2,2′-spirobichroman], the melting point fell in the range of 95 to 97 °C. The inhibition in vivo at 50 mg/kg in data set [1] was below 20%.

The molecule `COc1cc2c(cc1C)OC1(CC2(C)C)CC(C)(C)c2cc(OCC(=O)O)c(C)cc2O1` (racemic) [Example 20, (±)-(6′-Methoxy-4,4,4′,4′,7,7′-hexamethyl-2,2′-spirobichroman-6-yloxy)-acetic acid] gave a melting point of 195 to 197 °C. In addition, the inhibition in vivo at 50 mg/kg in data set [1] is below 20%. The like results for `Cc1cc2c(cc1O)C(C)(C)CC1(CC(C)(C)c3cc(OCC(N)=O)c(C)cc3O1)O2` (racemic) [Example 14, (±)-(6′-Hydroxy-4,4,4′,4′,7,7′-hexamethyl-2,2′-spirobichroman-6-yloxy)-acetamide] were, in that order, 220 to 221 °C and below 20%. `Cc1cc2c(cc1O)C(C)(C)CC1(CC(C)(C)c3cc(OC(C)(C)C(=O)O)c(C)cc3O1)O2` (stereo in doubt) [Example 10, (−)-(S)-(6′-Hydroxy-4,4,4′,4′,7,7′-hexamethyl-2,2′-spirobichroman-6-yloxy)-dimethylacetic acid]: the inhibition in vivo at 50 mg/kg in data set [1] was below 20%.

In the case of `Cc1cc2c(cc1O)C(C)(C)CC1(CC(C)(C)c3cc(OCCCCO)c(C)cc3O1)O2` (racemic), the melting point is 235 to 236 °C.

Consider `Cc1cc(CO)n(CCCOc2cc3c(cc2C)OC2(CC(C)(C)c4cc(O)c(C)cc4O2)CC3(C)C)n1` (racemic) [Example 18, (±)-6′-Hydroxy-6-[3-(5-hydroxymethyl-3-methyl-1H-pyrazol-1-yl)propoxy]-4,4,4′,4′,7,7′-hexamethyl-2,2′-spirobichroman], for which the melting point was in the range of 208 to 210 °C. This molecule returned an inhibition at 10 µM in data set [2] of 5%. In addition, the inhibition at 10 µM in data set [3] turned out to be 41%.

`Cc1cc2c(cc1O)C(C)(C)CC1(CC(C)(C)c3cc(O)c(C)cc3O1)O2` [Example 27, (−)-(S)-6,6′-dihydroxy-4,4,4′,4′,7,7′-hexamethyl-2,2′-spirobichroman] gave a melting point of 165 to 166 °C. Besides, the inhibition in vivo at 50 mg/kg in data set [1] was above 40%. Regarding `Cc1cc2c(cc1O)C(C)(C)CC1(CC(C)(C)c3cc(O)c(C)cc3O1)O2` (single isomer, unassigned) [Example 28], in data set [1], the inhibition in vivo at 50 mg/kg lay in the range of 20 to 40%. Regarding `Cc1cc2c(cc1O)C(C)(C)CC1(CC(C)(C)c3cc(OC(C)(C)CO)c(C)cc3O1)O2` (racemic) [Example 11, (±)-6-(2-Hydroxy-1,1-dimethyl-ethoxy)-6′-hydroxy-4,4,4′,4′,7,7′-hexamethyl-2,2′-spirobichroman], the melting point was in the range of 188 to 189 °C. Besides, the inhibition in vivo at 50 mg/kg in data set [1] is below 20%.

Consider `Cc1cc2c(cc1O)C(C)(C)CC1(CC(C)(C)c3cc(OCCCn4nc(CO)cc4C)c(C)cc3O1)O2` (racemic) [Example 17, (±)-6′-Hydroxy-6-[3-(3-hydroxymethyl-5-methyl-1H-pyrazol-1-yl)propoxy]-4,4,4′,4′,7,7′-hexamethyl-2,2′-spirobichroman], for which the melting point was in the range of 217 to 219 °C. Moreover, the inhibition in vivo at 50 mg/kg in data set [1] lay in the range of 20 to 40%. As to `Cc1cc2c(cc1O)C(C)(C)CC1(CC(C)(C)c3cc(OCCCn4cccn4)c(C)cc3O1)O2` (racemic) [Example 4, (±)-6′-Hydroxy-6-[3-(1H-pyrazol-1-yl)propoxy]-4,4,4′,4′,7,7′-hexamethyl-2,2′-spirobichroman], the inhibition at 10 µM was determined as 0% in data set [2] and 44% in data set [3]. The inhibition in vivo at 50 mg/kg in data set [1] is below 20%. Turning to `Cc1cc2c(cc1O)C(C)(C)CC1(CC(C)(C)c3cc(OC(C)(C)C(=O)O)c(C)cc3O1)O2` (racemic) [Example 8, (±)-(6′-Hydroxy-4,4,4′,4′,7,7′-hexamethyl-2,2′-spirobichroman-6-yloxy)-dimethylacetic acid], the figures for the inhibition at 10 µM in data set [2] and in data set [3] were 25% and 42%, respectively. Also, in data set [1], the inhibition in vivo at 50 mg/kg is above 40%.
